Results from ChEMBL document CHEMBL6083242, “Design and optimization of novel Tetrahydro-β-carboline-based HDAC inhibitors with potent activities against tumor cell growth and metastasis” (Bioorg Med Chem Lett, 2024).
Calls of active or inactive are those of the source. No cut-off for these calls is given here.

Legend:
[1] = system: MDA-MB-231; experiment: Antiproliferative activity against human MDA-MB-231 cells assessed as inhibition of cell proliferation
[2] = system: HeLa; experiment: Antiproliferative activity against human HeLa cells assessed as inhibition of cell proliferation
[3] = system: A549; experiment: Antiproliferative activity against human A549 cells assessed as inhibition of cell proliferation
[4] = system: MCF7; experiment: Antiproliferative activity against human MCF7 cells assessed as inhibition of cell proliferation
[5] = system: A549; experiment: Induction of apoptosis in human A549 cells at 5 uM incubated for 72 hrs by Annexin V/PI staining based flow cytometry analysis relative to control; assay type: functional
[6] = system: A549; experiment: Induction of apoptosis in human A549 cells assessed as induction of gammaH2AX expression at 0.5 uM incubated for 24 hrs by immunofluorescence analysis; assay type: functional, cell-based
[7] = system: A549; experiment: Antimetastatic activity in human A549 cells assessed as reduction in cell migration incubated for 24 hrs by wound healing assay; assay type: functional, cell-based; conditions: dose 0.5-5 µM
[8] = system: A549; experiment: Induction of apoptosis in human A549 cells incubated for 72 hrs by Annexin V/PI staining based flow cytometry analysis; assay type: functional, cell-based; conditions: dose 0.5-5 µM
[9] = system: A549; experiment: Induction of apoptosis in human A549 cells assessed as increase in ROS level incubated for 24 hrs by DCFH-DA staining based fluorescence analysis; assay type: functional, cell-based; conditions: dose 0.5-5 µM
[10] = system: A549; experiment: Induction of apoptosis in human A549 cells assessed as upregulation of PARP expression incubated for 24 hrs by Western blot analysis; assay type: functional, cell-based; conditions: dose 0.5-5 µM
[11] = system: A549; experiment: Induction of cell cycle arrest in human A549 cells assessed as accumulation of cells in G2/M phase by measuring cyclin B1 level incubated for 24 hrs by Western blotting analysis; assay type: functional, cell-based; conditions: dose 0.5-5 µM
[12] = system: A549; experiment: Induction of apoptosis in human A549 cells assessed as upregulation of cleaved caspase 3 expression incubated for 24 hrs by Western blot analysis; assay type: functional, cell-based; conditions: dose 0.5-5 µM
[13] = system: A549; experiment: Induction of apoptosis in human A549 cells assessed as downregulation of Bcl-2 expression incubated for 24 hrs by Western blot analysis; assay type: functional, cell-based; conditions: dose 0.5-5 µM
[14] = system: A549; experiment: Induction of cell cycle arrest in human A549 cells assessed as accumulation of cells at G2/M phase incubated for 24 hrs by flow cytometry analysis; assay type: functional, cell-based; conditions: dose 0.5-5 µM
[15] = system: A549; experiment: Induction of apoptosis in human A549 cells assessed as gammaH2AX foci formation incubated for 24 hrs by immunofluorescence analysis; assay type: functional, cell-based; conditions: dose 0.5-5 µM
[16] = system: A549; experiment: Induction of apoptosis in human A549 cells at 0.5 to 5 uM incubated for 72 hrs by Annexin V/PI staining based flow cytometry analysis (reference value: 17.35%); assay type: functional; conditions: dose 0.5-5 µM
[17] = system: A549; experiment: Induction of apoptosis in human A549 cells assessed as upregulation of Bax expression incubated for 24 hrs by Western blot analysis; assay type: functional, cell-based; conditions: dose 0.5-5 µM
[18] = system: A549; experiment: Induction of cell cycle arrest in human A549 cells assessed as accumulation of cells in G2/M phase by measuring CDK1 level incubated for 24 hrs by Western blotting analysis; assay type: functional, cell-based; conditions: dose 0.5-5 µM

SMILES	IC50 [1]	IC50 [2]	IC50 [3]	IC50 [4]	Activity [5]	also measured
O=C(CCCCCCC(=O)N1CCc2c(n(CC3CC3)c3ccccc23)C1)NO	2.1 µM	184 µM	2690 nM	1210 nM		
CC(C)Cn1c2c(c3ccccc31)CCN(C(=O)CCCCCCC(=O)NO)C2	1.69 µM	6.05 µM	4150 nM	3040 nM		
O=C(CCCCCCC(=O)N1CCc2c([nH]c3ccccc23)C1)NO	196 µM	0.43 µM	2290 nM	1840 nM		
O=C(CCCCCCC(=O)Nc1ccccc1)NO [VORINOSTAT]					34.83%	
CC(=O)N1CCc2c(n(CCCCCCC(=O)NO)c3ccccc23)C1	6.74 µM	6.09 µM	1090 nM	5670 nM	43.95%	Activity [6]: Active; Activity [7]: Dose-dependent-effect; Activity [8]: Dose-dependent-effect; Activity [9]: Dose-dependent-effect; Activity [10]: Dose-dependent-effect; Activity [11]: Dose-dependent-effect; Activity [12]: Dose-dependent-effect; Activity [13]: Dose-dependent-effect; Activity [14]: Dose-dependent-effect; Activity [15]: Dose-dependent-effect; Activity [16]: 24.17%; Activity [17]: Dose-dependent-effect; Activity [18]: Dose-dependent-effect
